Data set [1] has as its system diabetic neuropathy model (streptozotocin-injected rats). As to the kind of experiment: Motor nerve conduction velocity in STZ diabetic neuropathy model rats. Conditions: male SD rats, STZ 70 mg/kg diabetic neuropathy model; 3 mg/kg orally in 0.5% methyl cellulose; average value ± SD (n = 7–8). The format is in vivo. As to the method:
(§1) To 6-week-old male SD rats (CLEA Japan, Inc.) was injected 70 mg/kg body weight of streptozotocin (STZ) from the tail vein to form a diabetic neuropathy model.
(§2) After raising for one month, 3 mg/kg of compound (compound of Example 5 or Example 226) suspended in 0.5% methyl cellulose was orally administered to the rats. For the control group, a 0.5% aqueous methyl cellulose suspension free of the aforementioned compound was administered.
After the completion of the administration, the rats were anesthetized with Nembutal, the body temperature was maintained at a constant level using a hot plate at 37° C. and a desk lamp, needle electrodes were placed on the above-knee region and ankle, stimulated using Neuropack 2 (NIHON KOHDEN CORPORATION) principally at 1.6 mA and the evoked potential was detected from the plantar part. The Motor Nerve Conduction Velocity (MNCV) was calculated from the distance between different electrodes and latency difference of waveforms.

In data set [2] the test system is BDNF. As to the kind of experiment: BDNF content of ischiadic nerve of STZ diabetic neuropathy model rats (sandwich ELISA). The following applies: male SD rats, STZ 70 mg/kg diabetic neuropathy model, 3 mg/kg orally in 0.5% methyl cellulose, ischiadic nerve supernatant, average value ± SD (n = 7–8). The format is in vivo. As to the method: as §1, §2
After the evaluation of the nerve conduction velocity, the ischiadic nerve was taken from the rat, a lysis buffer (0.1M Tris-HCl buffer containing 1M sodium chloride, 2% BSA, 2 mM EDTA, 80 trypsin unit/L of aprotinin, pH 7.6) in a 20-fold amount of the wet weight of ischiadic nerve was added and the mixture was subjected to ultrasonication and centrifugal separation (15,000 rpm, 60 min.), and the BDNF content of the supernatant was measured.
The BDNF content was measured by sandwich ELISA Method using anti-BDNF polyclonal antibody (Promega) and biotinated anti-BDNF antibody (G1641, Promega). The results are shown in [Table 20].
In general terms: In an ELISA, binding on a coated surface is turned into a signal by an enzyme label.

The values that follow come from US7183276B2, “Azole compounds” (Takeda Pharmaceutical Company Limited, priority 2002, dated 2007).

As usually defined, the melting point is the temperature of the solid-liquid transition.

Turning to `CCOP(=O)(Cc1ccc(NC(=O)CCc2oc(-n3cnc4ccccc43)nc2-c2ccc(Cl)cc2)cc1)OCC` [Example 5, 3-[2-(1H-benzimidazol-1-yl)-4-(4-chlorophenyl)-5-oxazolyl]-N-[4-(diethylphosphonomethyl)phenyl]propionamide], the melting point was in the range of 159 to 160 °C. For the same molecule, the “MNCV (Motor Nerve Conduction Velocity)” value in data set [1] is given as 52.7 ± 5.0 m/s. For the same molecule, the “BDNF (content of ischiadic nerve)” value in data set [2] was 2.6 ± 0.7 ng/g.
